# How the values were obtained:
# Test in all cases: relative viability (nuclei count vs DMSO), 5 days (fraction); higher = more cells survive
# [1] = compound: CC[C@@H](C)CNCC(=O)N1CCC2=C([C@@H]1COC3=CC=CC(=C3)C)C=CS2 [RU-SKI 43] + COc1cc2c(Oc3ccc(NC(=O)C4(C(=O)Nc5ccc(F)cc5)CC4)cc3F)ccnc2cc1OCCCN1CCOCC1 [Foretinib] (partner 0.25 µM)
# Outline: (§1)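 Lung cancer cell lines were seeded in 1536-well plates and dosed by pin tool the next day, with either a single drug or a fixed anchor-drug dose combined with five library-drug doses (not always all listed) spaced in √10 steps. Five days later, one step fixed the cells and stained their nuclei (final 0.05% Triton X-100, 1% formaldehyde, 1 ug/ml Hoechst), and nuclei were counted on 4× images. Relative viability is the nuclei count in treated wells divided by the count in vehicle wells, and each value is the median of duplicate plates.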
# [2] = compound: CCc1c2c(nc3ccc(OC(=O)N4CCC(N5CCCCC5)CC4)cc13)-c1cc3c(c(=O)n1C2)COC(=O)[C@]3(O)CC [Irinotecan] + Nc1nc2[nH]cc(CCc3ccc(C(=O)N[C@@H](CCC(=O)O)C(=O)O)cc3)c2c(=O)[nH]1 [Pemetrexed] (partner 0.2 µM)
# Outline: as §1
# [3] = compound: Cn1cc(-c2cnc3ccc4ccc(CS(=O)(=O)NCc5ccccn5)cc4c(=O)c3c2)cn1 [MK-8033] + Cc1cc(Nc2cc(N3CCN(C)CC3)nc(Sc3ccc(NC(=O)C4CC4)cc3)n2)n[nH]1 [Tozasertib] (partner 0.1 µM)
# Outline: as §1
# [4] = compound: Cn1cc(-c2cnc3ccc4ccc(CS(=O)(=O)NCc5ccccn5)cc4c(=O)c3c2)cn1 [MK-8033] + Nc1ncn([C@H]2C[C@H](O)[C@@H](CO)O2)c(=O)n1 [Decitabine] (partner 2 µM)
# Outline: as §1
Cell Line,relative viability ([1]; first compound 0.1 µM),relative viability ([1]; first compound 0.3162 µM),relative viability ([1]; first compound 1 µM),relative viability ([1]; first compound 3.162 µM),relative viability ([1]; first compound 10 µM),relative viability ([2]; first compound 0.6325 µM),relative viability ([2]; first compound 2 µM),relative viability ([2]; first compound 6.325 µM),relative viability ([2]; first compound 20 µM),relative viability ([3]; first compound 0.02 µM),relative viability ([3]; first compound 0.06325 µM),relative viability ([3]; first compound 0.2 µM),relative viability ([3]; first compound 0.6325 µM),relative viability ([3]; first compound 2 µM),relative viability ([4]; first compound 0.02 µM),relative viability ([4]; first compound 0.06325 µM),relative viability ([4]; first compound 0.2 µM),relative viability ([4]; first compound 0.6325 µM),relative viability ([4]; first compound 2 µM)
NCI-H2023,0.954,1.1,0.82,0.828,0.558,0.256,0.2,0.156,0.0599,0.374,0.273,0.251,0.221,0.122,0.217,0.203,0.213,0.247,0.212
PC-14,0.872,1.15,1.02,1.07,0.909,0.155,0.175,0.136,0.111,0.607,0.539,0.482,0.594,0.519,0.214,0.176,0.225,0.212,0.183
ChaGo-K-1,0.854,1.07,0.98,0.862,0.818,0.238,0.232,0.236,0.239,0.216,0.227,0.224,0.218,0.206,0.525,0.463,0.56,0.385,0.511
NCI-H650,1.05,1.02,1.1,1.09,1.08,0.749,0.838,0.229,0.201,0.701,0.598,0.706,0.827,0.679,0.335,0.329,0.306,0.323,0.323
EBC-1,0.103,0.0955,0.101,0.0987,0.109,,,,,,,,,,,,,,
NCI-H2228,0.769,0.988,0.879,0.863,0.726,0.363,0.36,0.336,0.442,0.199,0.214,0.168,0.253,0.214,,,,,
NCI-H1703,0.388,0.33,0.297,0.337,0.295,,,,,,,,,,,,,,
201T,1.04,1.11,1.12,1.07,1.01,0.274,0.308,0.271,0.283,0.864,0.899,0.82,0.909,0.86,0.9,0.868,0.851,0.873,0.876
NCI-H1915,1.19,1.23,1.17,1.15,1.14,0.352,0.349,0.187,0.132,0.435,0.424,0.391,0.439,0.362,0.255,0.239,0.255,0.266,0.264
NCI-H358,0.631,0.749,0.829,0.776,0.489,0.167,0.19,0.146,0.167,0.0969,0.0932,0.1,0.0977,0.106,0.205,0.192,0.211,0.261,0.198
NCI-H2347,1.04,1.04,1.34,0.842,1.06,0.429,0.427,0.342,0.427,0.545,0.574,0.584,0.552,0.436,0.548,0.608,0.571,0.54,0.685
H3255,0.914,0.83,0.817,0.708,0.841,0.529,0.603,0.393,0.37,0.581,0.501,0.554,0.609,0.602,0.486,,0.595,0.642,0.639
NCI-H2009,1.21,1.42,1.31,1.24,1.17,0.783,0.439,0.211,0.121,0.776,0.703,0.694,0.707,0.737,0.376,0.318,0.351,0.372,0.403
NCI-H460,0.923,1.16,1.09,1.13,0.97,0.0679,0.093,0.0699,0.0601,0.392,0.443,0.387,0.377,0.108,0.525,0.439,0.446,0.451,0.475
A549,1.12,1.1,1.06,0.93,0.852,,,,,,,,,,0.263,0.319,0.474,0.156,0.305
NCI-H1563,0.918,0.985,0.957,0.855,0.755,0.649,0.777,0.756,0.671,,,,,,,,,,
NCI-H1623,0.802,0.871,0.922,0.826,0.711,,,,,0.396,0.358,0.428,0.43,0.498,,,,,
HCC-44,,,,,,0.617,0.721,0.549,0.488,0.886,0.837,0.771,0.729,0.813,0.95,0.933,0.948,1.02,0.954
IA-LM,1.25,1.28,1.49,1.18,1.13,,,,,,,,,,,,,,
NCI-H727,1.11,0.879,1.2,1.07,0.863,,,,,0.577,,0.714,0.465,0.61,0.846,0.783,0.921,0.927,0.829
NCI-H1792,,,,,,0.507,0.823,0.188,0.282,,,,,,0.527,0.508,0.47,0.522,0.537

# From the supplement of paper PMC10307832
